Measurements as given in patent US20150150266A1, “PESTICIDE COMPOUNDS, USE THEREOF AND METHOD OF PROTECTION OF PLANTS” (AGRA GROUP, A.S., priority 2012, published 2015).
Marks after values point to notes of the source that are not given here.

Assays:
[1] = system: Penicillium brevicompactum; assay: Fungal mycelium growth inhibition assay (agar dilution); format: cell-based; conditions: 7 days at 21° C.
Experimental: (§1) The assay for inhibitory activity of compounds of general formula (I) to radial growth and morphological effects to mycelia was carried out in agar by a multiple dilution method. The compound was diluted to concentrations shown in the Table in potato dextrose agar prepared in accordance with manufacturer's instructions. Petri dishes were filled with the thus prepared agar and aseptically inoculated with a disc of the diameter of 0.4 cm cut from a 7-day agar culture of the respective fungus. Controls were prepared in an analogous manner, using sterile distilled water instead of compound of general formula (I). The Petri dishes were incubated for 7 days at 21° C. and then the diameter of the colonies was measured. The percentage of inhibition of radial growth of the respective fungus was calculated according to the following equation: inhibition [%]=(DC-DT)/DC×100, wherein DC is the diameter of control colony and DT is the diameter of the colony grown on the agar containing the respective amount of compound of general formula (I). Standard deviation corresponds to averages from 3 replications.
(§2) The compound Cu2SO3.CuSO3.2H2O inhibited the growth of all tested mycelia (Table 1). Individual micelia have shown a variation in the sensitivity to the compound and concentration dependency on the fungicide dose was observed.

[2] = system: Aspergillus flavus; assay: as above; format: cell-based; conditions: 7 days at 21° C.
Experimental: as §1, §2

[3] = system: Fusarium oxysporum; assay: as above; format: cell-based; conditions: 7 days at 21° C.
Experimental: as §1, §2

[4] = system: Aspergillus fumigatus; assay: as above; format: cell-based; conditions: 7 days at 21° C.
Experimental: as §1, §2

[5] = system: Fusarium verticillioides; assay: as above; format: cell-based; conditions: 7 days at 21° C.
Experimental: as §1, §2

[6] = system: Penicillium expansum; assay: as above; format: cell-based; conditions: 7 days at 21° C.
Experimental: as §1, §2

[7] = system: Hordeum vulgare L.; assay: Field trial with crops, foliar spraying at BBCH 62; format: in vivo; conditions: for Yield / Yield, % of the control: foliar spraying of wettable powder A; for Yield, % of the control: control = water
Experimental: (§3) The experimental field was chosen in a warm region suitable for beet cultivation, with sufficient precipitation, soil type was brown earth. The plants were treated using a common agrotechnology, with the exception of the application of fungicidal protection. […] Water was used as the negative control.
(§4) At the end of the vegetative season, the crops were harvested and the yield was determined.

[8] = system: Triticum aestivum L.; assay: Field trial with crops, foliar spraying at BBCH 62; format: in vivo; conditions: for Yield / Yield, % of the control: foliar spraying of wettable powder A; for Yield, % of the control: control = water
Experimental: as §3, §4

With `O.O.O=S([O-])[O-].O=S([O-])[O-].[Cu+2].[Cu+].[Cu+]` [Cu2SO3•CuSO3•2H2O, Cu2SO3.CuSO3.2H2O (Chevreul's salt)] the “Percentage of radial growth inhibition” value ([1]; 0.3 mg/mL agar) was 77.78 ± 0.09%, the “Percentage of radial growth inhibition” value ([1]; 0.4 mg/mL agar) was 95.24 ± 0.00% and the “Percentage of radial growth inhibition” value ([1]; 0.5 mg/mL agar) was 100.00 ± 0.00%. For the same molecule, the “Percentage of radial growth inhibition” value ([2]; 0.3 mg/mL agar) was 97.67 ± 0.05%, the “Percentage of radial growth inhibition” value ([2]; 0.4 mg/mL agar) was 98.84 ± 0.05% and the “Percentage of radial growth inhibition” value ([2]; 0.5 mg/mL agar) was 100.00 ± 0.00%. The “Percentage of radial growth inhibition” value ([3]; 0.3 mg/mL agar) was 6.72 ± 0.05% ^1), the “Percentage of radial growth inhibition” value ([3]; 0.4 mg/mL agar) was 59.70 ± 0.16% ^1) and the “Percentage of radial growth inhibition” value ([3]; 0.5 mg/mL agar) was 97.76 ± 0.00%. The “Percentage of radial growth inhibition” value ([4]; 0.3 mg/mL agar) was 100.00 ± 0.00%, the “Percentage of radial growth inhibition” value ([4]; 0.4 mg/mL agar) was 100.00 ± 0.00% and the “Percentage of radial growth inhibition” value ([4]; 0.5 mg/mL agar) was 100.00 ± 0.00%. The “Percentage of radial growth inhibition” value ([5]; 0.3 mg/mL agar) was −2.81 ± 0.00% ^2), the “Percentage of radial growth inhibition” value ([5]; 0.4 mg/mL agar) was 19.10 ± 0.16% ^2) and the “Percentage of radial growth inhibition” value ([5]; 0.5 mg/mL agar) was 30.90 ± 0.00% ^2). The “Percentage of radial growth inhibition” value ([6]; 0.3 mg/mL agar) was 98.37 ± 0.05%, the “Percentage of radial growth inhibition” value ([6]; 0.4 mg/mL agar) was 96.75 ± 0.05% and the “Percentage of radial growth inhibition” value ([6]; 0.5 mg/mL agar) was 100.00 ± 0.00%. For the same molecule, the Yield ([7]; 2011, 125 g/ha) was 8.65 t/ha, the “Yield, % of the control” value ([7]; 2011, 125 g/ha) was 103.2% and the Yield ([7]; 2011, 625 g/ha) was 8.73 t/ha. The “Yield, % of the control” value ([7]; 2011, 625 g/ha) was 104.2%, the Phytotoxic effects ([7]; 2011, high dose 625 g/ha) was “No phytotoxic effects were observed even at this dose” and the “Occurrence of fusarioses or other fungal diseases” value ([7]; field trial, doses of Table 3) was “neither occurrence of fusarioses or other fungal diseases”. The Phytotoxic effects ([7]; field trial, doses of Table 3) was “No phytotoxic effects were observed”, the Yield ([8]; 2010, 125 g/ha) was 7.34 t/ha and the “Yield, % of the control” value ([8]; 2010, 125 g/ha) was 104.7%. For the same molecule, the Yield ([8]; 2011, 125 g/ha) was 8.45 t/ha, the “Yield, % of the control” value ([8]; 2011, 125 g/ha) was 108.1% and the Yield ([8]; 2011, 625 g/ha) was 8.60 t/ha. The “Yield, % of the control” value ([8]; 2011, 625 g/ha) was 110.1%, the Phytotoxic effects ([8]; 2011, high dose 625 g/ha) was “No phytotoxic effects were observed even at this dose” and the “Occurrence of fusarioses or other fungal diseases” value ([8]; field trial, doses of Table 3) was “neither occurrence of fusarioses or other fungal diseases”. The Phytotoxic effects ([8]; field trial, doses of Table 3) was “No phytotoxic effects were observed”.
